ChEMBL document CHEMBL1146967, “The geminal dimethyl analogue of Flurbiprofen as a novel Abeta42 inhibitor and potential Alzheimer's disease modifying agent” (Bioorg Med Chem Lett, 2006)
pIC50: −log10 of the molar value. Calls of active or inactive are those of the source. No cut-off for these calls is given here.

What was measured:
[1] = Inhibition of beta amyloid protein 42 in HEK cell lines overexpressing APP695 at 100 uM; assay type: functional; details: Homo sapiens, HEK293
[2] = test system: HEK293; test: Inhibition of beta amyloid protein 40 in HEK cell lines overexpressing APP695; assay type: functional, cell-based; details: Homo sapiens
[3] = test system: Mus musculus; test: Drug level in mouse brain at 50 mg/kg, po; assay type: ADME, organism-based; parameters: dose 50 mg/kg, route oral; details: in vivo, read-out: Drug uptake
[4] = test system: Mus musculus; test: Drug level in mouse plasma at 50 mg/kg, po; assay type: ADME, organism-based; parameters: dose 50 mg/kg, route oral; details: in vivo, read-out: Drug uptake
[5] = Ratio of drug level in brain against plasma in mice at 50 mg/kg, po; assay type: ADME, organism-based; parameters: dose 50 mg/kg, route oral; details: mouse, brain and plasma, read-out: BBR
[6] = biological target: T1, Gamma-secretase (Homo sapiens) (UniProt Q96BI3+Q9NZ42+Q8WW43+P49768+Q92542+P49810); test: Inhibition of beta amyloid protein 42 in SH-SY5Y cell lines overexpressing SPA4CT at 30 uM; assay type: functional, cell-based
[7] = Inhibition of beta amyloid protein 42 in HEK cell lines overexpressing APP695 at 40 uM; assay type: functional; details: Homo sapiens, HEK293
[8] = biological target: T1, Gamma-secretase (Homo sapiens); test: Inhibition of beta amyloid protein 42 in SH-SY5Y cell lines overexpressing SPA4CT at 100 uM; assay type: functional, cell-based
[9] = Oral bioavailability in rat at 2 mg/kg, po; assay type: ADME, organism-based; details: in vivo
[10] = Tmax in mouse at 2 mg/kg, po; assay type: ADME, organism-based; parameters: dose 2 mg/kg, route oral; details: in vivo
[11] = test system: Mus musculus; test: Decrease in beta amyloid protein 42 level in Tg2576 transgenic mouse at 21 mg/kg relative to control; assay type: functional; parameters: scale not given: the % may be the effect or the level left
[12] = Cmax in rat at 2 mg/kg, po; assay type: ADME, organism-based; parameters: dose 2 mg/kg, route oral; details: in vivo
[13] = Volume of distribution in monkey at 2 mg/kg, iv; assay type: ADME, organism-based, Macaca mulatta; parameters: dose 2 mg/kg, route intravenous; details: rhesus monkey, in vivo, read-out: Vdss
[14] = Half life in rat at 2 mg/kg, iv; assay type: ADME, organism-based; parameters: dose 2 mg/kg, route intravenous; details: in vivo
[15] = Oral bioavailability in dog at 2 mg/kg, po; assay type: ADME, organism-based, Canis lupus familiaris; details: in vivo
[16] = Tmax in dog at 2 mg/kg, po; assay type: ADME, organism-based, Canis lupus familiaris; parameters: dose 2 mg/kg, route oral; details: in vivo
[17] = Oral bioavailability in mouse at 2 mg/kg, po; assay type: ADME, organism-based; details: in vivo
[18] = Cmax in dog at 2 mg/kg, po; assay type: ADME, organism-based, Canis lupus familiaris; parameters: dose 2 mg/kg, route oral; details: in vivo
[19] = Half life in dog at 2 mg/kg, iv; assay type: ADME, organism-based, Canis lupus familiaris; parameters: dose 2 mg/kg, route intravenous; details: in vivo
[20] = test system: Mus musculus; test: Decrease in beta amyloid protein 40 level in Tg2576 transgenic mouse at 21 mg/kg relative to control; assay type: functional; parameters: scale not given: the % may be the effect or the level left
[21] = Cmax in monkey at 2 mg/kg, po; assay type: ADME, organism-based, Macaca mulatta; parameters: dose 2 mg/kg, route oral; details: rhesus monkey, in vivo
[22] = Volume of distribution in dog at 2 mg/kg, iv; assay type: ADME, organism-based, Canis lupus familiaris; parameters: dose 2 mg/kg, route intravenous; details: in vivo, read-out: Vdss
[23] = biological target: T1, Gamma-secretase (Homo sapiens); test: Inhibition of NOTCH receptor cleavage at 200 uM; assay type: functional
[24] = Clearance in dog at 2 mg/kg, iv; assay type: ADME, organism-based, Canis lupus familiaris; parameters: dose 2 mg/kg, route intravenous; details: in vivo
[25] = Oral bioavailability in monkey at 2 mg/kg, po; assay type: ADME, organism-based, Macaca mulatta; details: rhesus monkey, in vivo
[26] = Half life in monkey at 2 mg/kg, iv; assay type: ADME, organism-based, Macaca mulatta; parameters: dose 2 mg/kg, route intravenous; details: rhesus monkey, in vivo
[27] = Clearance in mouse at 2 mg/kg, iv; assay type: ADME, organism-based; parameters: dose 2 mg/kg, route intravenous; details: in vivo
[28] = biological target: Prostaglandin G/H synthase 1 (Homo sapiens, UniProt P23219); test: Inhibition of COX1 in human whole blood; assay type: functional, tissue-based
[29] = Volume of distribution in rat at 2 mg/kg, iv; assay type: ADME, organism-based; parameters: dose 2 mg/kg, route intravenous; details: in vivo, read-out: Vdss
[30] = Half life in mouse at 2 mg/kg, iv; assay type: ADME, organism-based; parameters: dose 2 mg/kg, route intravenous; details: in vivo
[31] = Clearance in rat at 2 mg/kg, iv; assay type: ADME, organism-based; parameters: dose 2 mg/kg, route intravenous; details: in vivo
[32] = Clearance in monkey at 2 mg/kg, iv; assay type: ADME, organism-based, Macaca mulatta; parameters: dose 2 mg/kg, route intravenous; details: rhesus monkey, in vivo
[33] = Tmax in monkey at 2 mg/kg, po; assay type: ADME, organism-based, Macaca mulatta; parameters: dose 2 mg/kg, route oral; details: rhesus monkey, in vivo
[34] = Cmax in mouse at 2 mg/kg, po; assay type: ADME, organism-based; parameters: dose 2 mg/kg, route oral; details: in vivo
[35] = Tmax in rat at 2 mg/kg, po; assay type: ADME, organism-based; parameters: dose 2 mg/kg, route oral; details: in vivo
[36] = Volume of distribution in mouse at 2 mg/kg, iv; assay type: ADME, organism-based; parameters: dose 2 mg/kg, route intravenous; details: in vivo, read-out: Vdss
[37] = biological target: T1, Gamma-secretase (Homo sapiens); test: Inhibition of beta amyloid protein 42 in SH-SY5Y cell lines overexpressing SPA4CT at 600 uM; assay type: functional, cell-based
[38] = biological target: T1, Gamma-secretase (Homo sapiens); details: SH-SY5Y, 300 uM
Description: Inhibition of beta amyloid protein 42 in SH-SY5Y cell lines overexpressing SPA4CT at 300 uM

Chain of Prostaglandin G/H synthase 1 (P23219 whole entry): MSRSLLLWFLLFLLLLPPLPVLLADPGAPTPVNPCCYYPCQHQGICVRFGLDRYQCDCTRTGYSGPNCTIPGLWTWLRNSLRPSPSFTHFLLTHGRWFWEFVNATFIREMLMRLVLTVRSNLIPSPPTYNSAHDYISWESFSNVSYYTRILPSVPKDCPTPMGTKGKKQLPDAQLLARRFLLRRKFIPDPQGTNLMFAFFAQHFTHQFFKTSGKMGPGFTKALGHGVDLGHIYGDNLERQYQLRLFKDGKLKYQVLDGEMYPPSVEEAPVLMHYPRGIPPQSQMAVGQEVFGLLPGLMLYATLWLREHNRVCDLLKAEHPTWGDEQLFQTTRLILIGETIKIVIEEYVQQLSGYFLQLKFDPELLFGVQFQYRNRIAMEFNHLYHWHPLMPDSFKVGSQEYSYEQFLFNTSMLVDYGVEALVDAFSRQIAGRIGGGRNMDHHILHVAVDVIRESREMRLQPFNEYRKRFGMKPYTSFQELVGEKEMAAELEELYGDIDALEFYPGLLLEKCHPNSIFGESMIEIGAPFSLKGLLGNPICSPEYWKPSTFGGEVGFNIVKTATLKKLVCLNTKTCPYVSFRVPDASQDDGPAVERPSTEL

COc1ccc2cc(C(C)(C)C(=O)O)ccc2c1
inhibition at 100 µM [1]: 0%
inhibition [2]: inactive

Cc1cccc(Nc2ccccc2C(=O)O)c1C [MEFENAMIC ACID]
concentration [3]: 2.7 µM
concentration [4]: 87 µM
Kp [5]: 0.03

CSc1ccc(/C=C2/C(C)=C(CC(=O)O)c3cc(F)ccc32)cc1 [SULINDAC SULFIDE]
inhibition [6]: 73%
concentration [3]: 1.7 µM
inhibition at 40 µM [7]: 54%
concentration [4]: 296 µM
Kp [5]: 0.006

COc1ccc2c(c1)c(CC(=O)O)c(C)n2C(=O)c1ccc(Cl)cc1 [INDOMETHACIN]
concentration [3]: 3 µM
inhibition at 100 µM [1]: 73%
concentration [4]: 266 µM
inhibition [8]: 53%
Kp [5]: 0.01

C[C@@H](C(=O)O)c1ccc(-c2ccccc2)c(F)c1 [TARENFLURBIL]
concentration [3]: 41 µM
inhibition at 100 µM [1]: 51%
concentration [4]: 1190 µM
inhibition [8]: 23%
Kp [5]: 0.04

CC(C)Cc1ccc(C(C)(C)C(=O)O)cc1
inhibition at 100 µM [1]: 3%
inhibition [2]: inactive

CC(C)(C(=O)O)c1ccc(-c2ccccc2)c(F)c1
bioavailability [9]: 79%
Tmax [10]: 0.25 h
Activity [11]: 18%
Cmax [12]: 15.2 µM
concentration [3]: 13 µM
Vd [13]: 0.3 L/kg
half-life [14]: 3.4 h
bioavailability [15]: 87%
Tmax [16]: 0.33 h
bioavailability [17]: 81%
Cmax [18]: 76.4 µM
half-life [19]: 11.3 h
Activity [20]: 13%
inhibition at 100 µM [1]: 67%
Cmax [21]: 27.3 µM
Vd [22]: 0.11 L/kg
concentration [4]: 849 µM
Activity [23]: inactive
clearance [24]: 0.28 mL/min/kg
bioavailability [25]: 90%
half-life [26]: 8 h
clearance [27]: 0.7 mL/min/kg
pIC50 [28]: < 4.00
Vd [29]: 0.15 L/kg
half-life [30]: 4.6 h
clearance [31]: 1.3 mL/min/kg
clearance [32]: 3.8 mL/min/kg
Tmax [33]: 0.25 h
Cmax [34]: 24.4 µM
Kp [5]: 0.02
Tmax [35]: 2 h
Vd [36]: 0.22 L/kg
inhibition [2]: inactive

CC(C)Cc1ccc(C(C)C(=O)O)cc1 (stereo not drawn) [IBUPROFEN]
Activity [11]: 20%
concentration [3]: 18 µM
inhibition [37]: 41%
Activity [20]: 11%
inhibition at 100 µM [1]: 28%
concentration [4]: 592 µM
Kp [5]: 0.03

O=C(O)Cc1ccccc1Nc1c(Cl)cccc1Cl
inhibition [8]: 17%

CC1=C(CC(=O)O)c2cc(F)ccc2/C1=C\c1ccc(S(C)(=O)=O)cc1 [EXISULIND]
inhibition [6]: 9%
inhibition at 40 µM [7]: 0%

CC(C)(C(=O)O)c1cccc(Oc2ccccc2)c1
inhibition at 100 µM [1]: 0%
inhibition [2]: inactive

CC(C(=O)O)c1cccc(Oc2ccccc2)c1 (stereo not drawn) [FENOPROFEN]
concentration [3]: 41 µM
concentration [4]: 1360 µM
Kp [5]: 0.03

C[C@H](C(=O)O)c1ccc(-c2ccccc2)c(F)c1 [ESFLURBIPROFEN]
inhibition at 100 µM [1]: 65%
inhibition [8]: 37%

COc1ccc2cc([C@H](C)C(=O)O)ccc2c1 [NAPROXEN]
concentration [3]: 27 µM
inhibition [38]: 3%
concentration [4]: 887 µM
Kp [5]: 0.03

CC(=O)Nc1ccc(O)cc1 [ACETAMINOPHEN]
concentration [3]: 43 µM
concentration [4]: 64 µM
Kp [5]: 0.68

CC(C)(C(=O)O)c1ccc2c(c1)[nH]c1ccc(Cl)cc12
inhibition at 100 µM [1]: 40%
inhibition [2]: inactive

COc1ccc2c(c1)c(C(C)(C)C(=O)O)c(C)n2C(=O)c1ccc(Cl)cc1
inhibition at 100 µM [1]: 2%
inhibition [2]: inactive
